Reference: patent publication US10670605B2, “Cysteine reactive probes and uses thereof” (The Scripps Research Institute, priority 2015, dated 2020)

Key:
Assay in all cases: Competitive isoTOP-ABPP, cell lysates;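 for isoTOP-ABPP reactivity profile ratio, O00170 C122: Heavy/light ratio DMSO over fragment-treated so higher means more cysteine engagement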;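 for isoTOP-ABPP reactivity profile ratio, P09211 C48: Heavy/light ratio DMSO over fragment-treated so higher means more cysteine engagement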
Assay type in all cases: binding
GSTP1 C48 (P09211) = GSTP1 C48 (P09211) (Homo sapiens, UniProt P09211); conditions: for isoTOP-ABPP reactivity profile ratio, P09211_C48: 500 μm;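 for isoTOP-ABPP reactivity profile ratio, P09211 C48: Heavy/light ratio DMSO over fragment-treated so higher means more cysteine engagement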
PDIA6 C190 (Q15084) = molecular target: T1, PDIA6 C190 (Q15084) (Homo sapiens, UniProt Q15084)
T1 sequence (Q15084 20-440): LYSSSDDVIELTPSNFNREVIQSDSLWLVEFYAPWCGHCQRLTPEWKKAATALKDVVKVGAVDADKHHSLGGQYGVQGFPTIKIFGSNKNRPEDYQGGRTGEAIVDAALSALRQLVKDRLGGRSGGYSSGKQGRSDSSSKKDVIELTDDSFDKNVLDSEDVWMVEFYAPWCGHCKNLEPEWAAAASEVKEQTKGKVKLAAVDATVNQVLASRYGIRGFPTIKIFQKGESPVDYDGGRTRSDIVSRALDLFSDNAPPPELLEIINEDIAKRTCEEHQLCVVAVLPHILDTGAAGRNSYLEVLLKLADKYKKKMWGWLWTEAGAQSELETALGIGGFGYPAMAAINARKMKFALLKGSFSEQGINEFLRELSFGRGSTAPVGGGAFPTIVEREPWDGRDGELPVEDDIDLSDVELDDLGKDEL

UBE2L3 C86 (P68036) = UBE2L3 C86 (P68036) (Homo sapiens, UniProt P68036)
GNB2L1 C182 (P63244) = GNB2L1 C182 (P63244) (Homo sapiens, UniProt P63244); conditions: for isoTOP-ABPP reactivity profile ratio, P63244_C182: 500 μm
ZNF217 C286 (O75362) = ZNF217 C286 (O75362) (Homo sapiens, UniProt O75362)
UCHL3 C95 (P15374) = molecular target: T2, UCHL3 C95 (P15374) (Homo sapiens, UniProt P15374); conditions: for isoTOP-ABPP reactivity profile ratio, P15374_C95: 500 μm
T2 sequence (P15374 1-230): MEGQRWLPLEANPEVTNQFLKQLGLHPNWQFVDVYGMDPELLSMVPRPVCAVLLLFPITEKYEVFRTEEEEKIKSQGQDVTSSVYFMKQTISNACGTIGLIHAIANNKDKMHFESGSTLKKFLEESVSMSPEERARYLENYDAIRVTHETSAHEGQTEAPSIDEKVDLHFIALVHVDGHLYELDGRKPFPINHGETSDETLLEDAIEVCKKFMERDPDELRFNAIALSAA

PRMT1 C109 (Q99873) = PRMT1 C109 (Q99873) (Homo sapiens, UniProt Q99873); conditions: for isoTOP-ABPP reactivity profile ratio, Q99873_C109: 500 μm
SMARCC2 C145 (Q8TAQ2) = SMARCC2 C145 (Q8TAQ2) (Homo sapiens, UniProt Q8TAQ2); conditions: for isoTOP-ABPP reactivity profile ratio, Q8TAQ2_C145: 500 μm
AIP C122 (O00170) = molecular target: T3, AIP C122 (O00170) (Homo sapiens, UniProt O00170); conditions: 500 μm;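 note: Heavy/light ratio DMSO over fragment-treated so higher means more cysteine engagement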
T3 sequence (O00170 1-330): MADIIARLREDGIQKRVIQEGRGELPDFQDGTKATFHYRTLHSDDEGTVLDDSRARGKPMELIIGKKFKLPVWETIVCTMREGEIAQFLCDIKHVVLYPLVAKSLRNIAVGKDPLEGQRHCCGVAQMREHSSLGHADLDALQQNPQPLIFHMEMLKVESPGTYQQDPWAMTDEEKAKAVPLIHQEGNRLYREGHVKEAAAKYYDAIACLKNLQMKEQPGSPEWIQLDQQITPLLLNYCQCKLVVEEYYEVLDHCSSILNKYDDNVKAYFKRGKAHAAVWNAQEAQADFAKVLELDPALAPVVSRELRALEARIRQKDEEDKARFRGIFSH

SMILES: CC(Cl)C(=O)Nc1cc(C(F)(F)F)cc(C(F)(F)F)c1 (centres unmarked) [compound 25]
- isoTOP-ABPP ratio (reactivity profile), P09211_C48 (GSTP1 C48 (P09211); 500 μm in-vitro ramos_231): 1.8
- isoTOP-ABPP ratio (reactivity profile), Q15084_C190 (PDIA6 C190 (Q15084); 500 μm in-vitro ramos_231): 1.0
- isoTOP-ABPP ratio (reactivity profile), P68036_C86 (UBE2L3 C86 (P68036); 500 μm in-vitro ramos_231): 1.5
- isoTOP-ABPP ratio (reactivity profile), P63244_C182 (GNB2L1 C182 (P63244); 500 μm in-vitro ramos_231): 1.2
- isoTOP-ABPP ratio (reactivity profile), O75362_C286 (ZNF217 C286 (O75362); 500 μm in-vitro ramos_231): 20.0
- isoTOP-ABPP ratio (reactivity profile), P15374_C95 (UCHL3 C95 (P15374); 500 μm in-vitro ramos_231): 0.8
- isoTOP-ABPP ratio (reactivity profile), Q99873_C109 (PRMT1 C109 (Q99873); 500 μm in-vitro ramos_231): 1.0
- isoTOP-ABPP ratio (reactivity profile), Q8TAQ2_C145 (SMARCC2 C145 (Q8TAQ2); 500 μm in-vitro ramos_231): 0.9

SMILES: CNS(=O)(=O)C=Cc1ccc2c(ccn2Cc2ccccc2)c1 [compound 6]
- isoTOP-ABPP ratio, P09211_C48 (GSTP1 C48 (P09211); 500 μM, invitro, 231): 1.2
- isoTOP-ABPP ratio, Q15084_C190 (PDIA6 C190 (Q15084); 500 μM, invitro, 231): 1.1
- isoTOP-ABPP ratio, P68036_C86 (UBE2L3 C86 (P68036); 500 μM, invitro, 231): 1.8
- isoTOP-ABPP ratio, P63244_C182 (GNB2L1 C182 (P63244); 500 μM, invitro, 231): 1.5
- isoTOP-ABPP ratio O75362_C286 (ZNF217 C286 (O75362); 500 μM, invitro, 231): 0.9
- isoTOP-ABPP ratio, P15374_C95 (UCHL3 C95 (P15374); 500 μM, invitro, 231): 1.1
- isoTOP-ABPP ratio, Q99873_C109 (PRMT1 C109 (Q99873); 500 μM, invitro, 231): 1.1

SMILES: O=C(CCl)N1CCc2cc(Br)ccc21 [compound 50]
- isoTOP-ABPP reactivity profile ratio, P09211_C48 (GSTP1 C48 (P09211); in-vitro_ramos_231): 2.3
- isoTOP-ABPP reactivity profile ratio, P63244_C182 (GNB2L1 C182 (P63244); in-vitro_ramos_231): 0.8
- isoTOP-ABPP reactivity profile ratio, O00170_C122 (AIP C122 (O00170); in-vitro_ramos_231): 2.3
- isoTOP-ABPP reactivity profile ratio, P15374_C95 (UCHL3 C95 (P15374); in-vitro_ramos_231): 1.3
- isoTOP-ABPP reactivity profile ratio, Q99873_C109 (PRMT1 C109 (Q99873); in-vitro_ramos_231): 1.0
- isoTOP-ABPP reactivity profile ratio, Q8TAQ2_C145 (SMARCC2 C145 (Q8TAQ2); in-vitro_ramos_231): 2.8

SMILES: N#CC(=Cc1ccc(-c2ccccc2Cl)o1)C(N)=O [compound 42]
- isoTOP-ABPP reactivity profile ratio, P09211_C48 (GSTP1 C48 (P09211); in-vitro_ramos): 0.7
- isoTOP-ABPP reactivity profile ratio, P68036_C86 (UBE2L3 C86 (P68036); 500 μm, in-vitro_ramos): 0.8
- isoTOP-ABPP reactivity profile ratio, P63244_C182 (GNB2L1 C182 (P63244); in-vitro_ramos): 0.8
- isoTOP-ABPP reactivity profile ratio, O75362_C286 (ZNF217 C286 (O75362); 500 μm, in-vitro_ramos): 1.0
- isoTOP-ABPP reactivity profile ratio, O00170_C122 (AIP C122 (O00170); in-vitro_ramos): 0.8
- isoTOP-ABPP reactivity profile ratio, P15374_C95 (UCHL3 C95 (P15374); in-vitro_ramos): 0.9
- isoTOP-ABPP reactivity profile ratio, Q99873_C109 (PRMT1 C109 (Q99873); in-vitro_ramos): 0.9
- isoTOP-ABPP reactivity profile ratio, Q8TAQ2_C145 (SMARCC2 C145 (Q8TAQ2); in-vitro_ramos): 1.0
